Patent US8318787B2, “Prodrugs of (3,5-bis(4-fluorophenyl)tetrahydro-1H-oxazolo[3,4-C]oxazol-7A-yl)methanol and derivatives thereof” (University of Kansas, priority 2005, dated 2012)

Assays:
primary cortical neurons = experiment: Neuroprotection of primary cortical neurons exposed to Aβ peptides (Live/Dead assay); format: cell-based; settings: Rattus norvegicus, Primary cortical neuron, Aβ25-35, 48 hours, read-out: EC50 (concentration that lead to a 50% increase in neuronal survival in the presence of the Aβ peptide)
Procedure: This example illustrates the neuroprotective effects of TH-237A in neuronal cells after exposure to Aβ peptides. To prepare the primary neurons, dissociated cortical cell cultures were established from embryonic day 18 rat fetuses recovered from pregnant Sprague Dawley rats (Harlan Sprague Dawley, Inc., Indianapolis, Ind.) as described previously (Michaelis et al., 1994). Pups were delivered by cesarean section while the dam was anesthetized with pentobarbital (140 mg/kg, i.p.), and the brains were recovered according to National Institutes of Health-approved protocols. After the final precipitation step, neurons were suspended in fresh DMEM/F12 (Sigma Chemical Co. St. Louis, Mo.) with 10% fetal bovine serum (Atlanta Biologicals, Atlanta, Ga.) and plated at a density of 2.5×10^5 cells in 35 mm glass bottom microwell dishes (Mat-Tek Co., Ashland, Mass.), coated with poly-D-lysine. Serum-containing medium was removed after 24 hours, and the cells were maintained in serum-free DMEM/F12 containing the N2 supplements. […]
After five days in culture, the primary neurons were exposed to either Aβ25-35 or Aβ1-42 in the presence or absence of concentrations of TH-237A ranging from 0.5 to 60 nM. […] Each batch of Aβ peptide was analyzed for β-sheet formation by circular dichroism, but no effort was made to separate oligomers from fibrils. […]
The effects of the Aβ peptides and TH-237A were primarily determined by monitoring neuronal cell survival using the Live/Dead assay as previously described (Michaelis et al., 1998; Michaelis et al., 2005). […] The number of viable (green) and dead (red) neurons was determined by counting the cells, and this was done in 6-12 microscopic fields per culture dish in duplicate dishes for each treatment. […] Thus, approximately 1500 neurons were scored under each treatment condition. The fraction of viable cells in each field was calculated based on the total number of cells counted in each field. Raw data from each experiment were combined and the significance of differences between cultures exposed to various treatments was determined using Student's t test. […]

[1] = Oral absorption of parent compound and prodrug (plasma levels); format: in vivo
Procedure: The prodrug compound (3,5-bis(4-fluorophenyl)tetrahydro-1H-oxazolo[3,4-C]oxazol-7a-yl)methanol phosphate was studied for oral absorption. A formulation of (3,5-bis(4-fluorophenyl)tetrahydro-1H-oxazolo[3,4-C]oxazol-7a-yl)methanol was prepared into a suspension and into a composition with Captisol, and the prodrug thereof was formulated into an aqueous solution. Oral absorption behavior of the parent compound is depicted in FIG. 8. As previously mentioned, the systemic exposure of the parent compound following oral administration of the parent compound as a suspension is limited compared to a solution of the parent compound administered in Captisol. The systemic exposure of the prodrug compound following oral administration of an aqueous solution of the prodrug compound is depicted in FIG. 9.

[2] = In vivo pharmacokinetics in plasma and brain; parameters: species or system Male Balb/C mice; settings: mice, 10 mg/Kg in Captisol, i.v. or s.c.
Procedure: In this example, the pharmacokinetics of TH-237A were evaluated in vivo. Male Balb/C mice were dosed with TH-237A (10 mg/Kg in Captisol®) via either an i.v. injection into the tail vein or via subcutaneous (sc) injection. At multiple time points ranging from 0 to 240 minutes, 12 mice (n=6, i.v.; n=6, s.c.) were anesthetized with isoflurane, and blood was collected via cardiac puncture. Mice were perfused with 30 mL of saline to wash remaining blood from the vessels, and the brain tissue was harvested. The levels of TH-237A in plasma and brain were quantified using mass spectrometric methods.
Sample preparations. Brain homogenate was prepared in a 1:4 ratio with deionized water. A sonic dismembrator was pulsed at 30% power until the sample was liquified. Aliquots of mouse plasma (0.05 mL) or mouse brain homogenates (0.25 g) were spiked with 50 ng of internal standard (deuterated TH-237A) and vortexed for 10 seconds. The TH-237A and internal standard were extracted using 1.3 mL of methyl t-butyl ether. Samples were vortexed for 5 minutes and centrifuged. The supernatant was transferred to 2 mL centrifuge tubes and evaporated to dryness. The sample was reconstituted in 0.2 mL of sample solvent, vortexed and centrifuged before a 10 uL aliquot was injected on to the LC/MS system for analysis.
Analysis of TH-237A. The levels of the drug in the samples were determined by means of HPLC/MS. […]

in vitro = settings: bovine, pH 7.4
Procedure: The BBMECs were grown on 0.4 μm polycarbonate membranes. […] Transport studies were performed in pH 7.4 standard buffer solutions, consisting of either Hank's balanced salt solution (HBSS) or phosphate buffered saline (PBS) supplemented with 0.63 mM CaCl2, 0.74 mM MgSO4, 5.3 mM glucose and 0.1 mM ascorbic acid (PBSA). Briefly, all studies were performed in 3 ml of PBSA in each donor and receiver chamber of the side-by-side diffusion chambers and stirred at 600 rpm at 37° C. The cells were allowed to equilibrate in PBSA for 30 minutes prior to each experiment and oriented such that apical or blood side of the cells face the donor chamber and the basolateral or brain side of the cells adhere to the polycarbonate membranes and face the receiver chamber of the diffusion apparatus. At each time point, a 100 μl sample was taken from the receiver compartment and immediately replaced with an equal volume of PBSA. The transport studies were performed in the presence or absence of CsA (5-10 μM). Monolayers were checked for trypan blue exclusion after experiments as well to assess general cell viability. The permeability of all monolayers used in these experiments was monitored for [^14C] sucrose leakage as a measure of potential TH-237A-induced loss of integrity. The radioactivity was quantified using liquid scintillation spectrometry.

[3] = tested on: P-glycoprotein efflux transporter; experiment: Rhodamine 123 accumulation assay in bovine brain microvessel endothelial cells; format: in vitro ADME; settings: BBMECs
Procedure: First, a rhodamine 123 assay was used for to assess uptake of the test compound in brain endothelial cells. Bovine brain microvessel endothelial cells (“BBMECs”) were isolated and grown in primary culture on 12 well cluster dishes at a density of 50,000 cells/cm^2 essentially as described previously (Rice et al., 2005). The culture medium was changed every other day after seeding until a confluent monolayer was formed as determined by light microscopy. Experiments were performed in phosphate buffered saline supplemented with calcium and glucose (PBSA), pH 7.4. Briefly, the growth medium was first aspirated off, and the cells were rinsed three times with pre-warmed (37° C.) PBSA. […] Cell lysates were assayed using a microplate fluorescence reader (Bio-Tek Instruments, Winooski, Vt.) at excitation/emission wavelengths of 485 nm/520 nm, then quantified against standard curves of rhodamine 123 in lysing solution. The fluorescence of the cell lysates was corrected for autofluorescence of untreated cells. The protein content of each monolayer was then determined using the BCA protein assay reagent kit. Results were expressed as total nanomoles of rhodamine 123 accumulation per mg cellular protein for agents tested at 10 μM.

| SMILES | melting point | EC50 (primary cortical neurons) | other results |
| --- | --- | --- | --- |
| OCC12CO[C@H](c3ccc(F)cc3)N1[C@@H](c1ccc(F)cc1)OC2 (racemic) [TH-236B, (3R,5R) and (3S,5S) (3,5-bis(4-fluorophenyl)tetrahydro-1H-oxazolo[3,4-c]oxazol-7a-yl)methanol] |  | ~40 nM |  |
| OCC1(CO)COC(c2ccc(F)cc2)N1 (racemic) [TH-OPEN, (R/S)-(2-(4-fluorophenyl)oxazolidine-4,4-diyl)dimethanol] | 89 °C | ~50 nM |  |
| OCC1(CO)COC(c2ccc(C(F)(F)F)cc2)N1 (racemic) [TH-OPENTFM, (R/S)-(2-(4-(trifluoromethyl)phenyl)oxazolidine-4,4-diyl)dimethanol] | 98 °C |  |  |
| O=P([O-])([O-])OCC12COC(c3ccc(F)cc3)N1C(c1ccc(F)cc1)OC2.[Na+].[Na+] (stereo not shown) [(3,5-bis(4-fluorophenyl)tetrahydro-1H-oxazolo[3,4-C]oxazol-7a-yl)methanol phosphate] |  |  | systemic exposure of drug from aqueous prodrug solution relative to Captisol solution of the parent compound ([1]; aqueous solution of prodrug): equivalent or better |
| OCC12COC(c3ccc(F)cc3)N1C(c1ccc(F)cc1)OC2 (stereo not shown) [(3,5-bis(4-fluorophenyl)tetrahydro-1H-oxazolo[3,4-C]oxazol-7a-yl)methanol] |  |  | systemic exposure after oral administration as a suspension compared to solution in Captisol ([1]; suspension): limited |
| OC[C@]12CO[C@H](c3ccc(F)cc3)N1[C@H](c1ccc(F)cc1)OC2 [TH-237A, (3R,5S,7as)-(3,5-bis(4-fluorophenyl)tetrahydro-1H-oxazolo[3,4-c]oxazol-7a-yl)methanol] |  | 5 nM | plasma half-life [2]: on the order of hours; amount of drug entering the plasma ([2]; regardless of route): a very significant amount of the drug enters the plasma; Papp (in vitro): 270 ×10⁻⁶ cm/s; effect on rhodamine 123 accumulation / P-glycoprotein substrate [3]: not a substrate for the P-glycoprotein efflux transporter |

Second part, led by results:

| melting point | SMILES | EC50 (primary cortical neurons) | other results |
| --- | --- | --- | --- |
| 120 °C | OCC12CO[C@H](c3ccc(C(F)(F)F)cc3)N1[C@@H](c1ccc(C(F)(F)F)cc1)OC2 (racemic) [TH-242B, (3R,5R) and (3S,5S) (3,5-bis(4-trifluoromethylphenyl)tetrahydro-1H-oxazolo[3,4-c]oxazol-7a-yl)methanol] |  |  |
| 102 °C | OC[C@]12CO[C@H](c3ccc(C(F)(F)F)cc3)N1[C@H](c1ccc(C(F)(F)F)cc1)OC2 [TH-242A] |  |  |
